How the values were obtained:
TTR [1] = assay: TTR editing in primary cyno hepatocytes electroporated with Spy Cas9 protein and dgRNAs (Tables 10, 11); assay type: cell-based, cynomolgus monkey; details: primary cyno hepatocytes electroporated with Spy Cas9 protein (RNP) and cyno specific dgRNAs
Method: (§1) Primary liver hepatocytes. Primary human liver hepatocytes (PHH) and primary cynomolgus liver hepatocytes (PCH) (Gibco) were cultured per the manufacturer's protocol (Invitrogen, protocol 11.28.2012). In brief, the cells were thawed and resuspended in hepatocyte thawing medium with supplements (Gibco, Cat. CM7000) followed by centrifugation at 100 g for 10 minutes for human and 80 g for 4 minutes for cyno. The supernatant was discarded and the pelleted cells resuspended in hepatocyte plating medium plus supplement pack (Invitrogen, Cat. A1217601 and CM3000). Cells were counted and plated on Bio-coat collagen I coated 96-well plates (ThermoFisher, Cat. 877272) at a density of 33,000 cells/well for human or 60,000 cells/well for cyno (or 65,000 cells/well when assaying effects on TTR protein, described further below). Plated cells were allowed to settle and adhere for 6 or 24 hours in a tissue culture incubator at 37° C. and 5% CO2 atmosphere. After incubation cells were checked for monolayer formation and media was replaced with hepatocyte culture medium with serum-free supplement pack (Invitrogen, Cat. A1217601 and CM4000).
(§2) […] formation was performed prior to electroporation or transfection of Spy Cas9 protein loaded with guide RNAs (RNPs) onto cells. For dual guide (dgRNAs), individual crRNA and trRNA was pre-annealed by mixing equivalent amounts of reagent and incubating at 95° C. for 2 min and cooling to room temperature. Single guide (sgRNAs) were boiled at 95° C. for 2 min and cooling to room temperature. The boiled dgRNA or sgRNA was incubated with Spy Cas9 protein in Optimem for 10 minutes at room temperature to form a ribonucleoprotein (RNP) complex.
(§3) For RNP electroporation into primary human and cyno hepatocytes, the cells are thawed and resuspended in Lonza electroporation Primary Cell P3 buffer at a concentration of 2500 cells per μL for human hepatocytes and 3500 cells per μL for cyno hepatocytes. A volume of 20 μL of resuspended cells and 5 μL of RNP are mixed together per guide. 20 μL of the mixture is placed into a Lonza electroporation plate. The cells were electroporated using the Lonza nucleofector with the preset protocol EX-147. Post electroporation, the cells are transferred into a Biocoat plate containing pre-warmed maintenance media and placed in a tissue culture incubator at 37° C. and 5% CO2.
(§4) Transfected cells were harvested post-transfection at 24, 48, or 72 hours. The genomic DNA was extracted from each well of a 96-well plate using 50 μL/well BuccalAmp DNA Extraction solution (Epicentre, Cat. QE09050) per manufacturer's protocol. All DNA samples were subjected to PCR and subsequent NGS analyses, as described herein.
(§5) To quantitatively determine the efficiency of editing at the target location in the genome, sequencing was utilized to identify the presence of insertions and deletions introduced by gene editing.
(§6) Primers were designed around the target site within the gene of interest (e.g. TTR), and the genomic area of interest was amplified.
(§7) Additional PCR was performed per the manufacturer's protocols (Illumina) to add chemistry for sequencing. The amplicons were sequenced on an Illumina MiSeq instrument. The reads were aligned to a reference genome (e.g., the human reference genome (hg38), the cynomologus reference genome (mf5), the rat reference genome (rn6), or the mouse reference genome (mm10)) after eliminating those having low quality scores. The resulting files containing the reads were mapped to the reference genome (BAM files), where reads that overlapped the target region of interest were selected and the number of wild type reads versus the number of reads which contain an insertion, substitution, or deletion was calculated.
(§8) The editing percentage (e.g., the “editing efficiency” or “percent editing” or “indel frequency”) is defined as the total number of sequence reads with insertions/deletions (“indels”) or substitutions over the total number of sequence reads, including wild type. […]

TTR [2] = assay: TTR editing in primary human hepatocytes electroporated with Spy Cas9 protein loaded with dgRNAs (Table 7); assay type: cell-based; details: dgRNA electroporated with Spy Cas9 protein (RNP)
Method: as §1, §2, §3, §4, §5, §6, §7, §8

TTR [3] = assay: TTR editing in primary human hepatocytes transfected with Spy Cas9 mRNA and dgRNAs (Table 9); assay type: cell-based; details: dgRNA co-transfected with Spy Cas9 mRNA (SEQ ID NO:2)
Method: as §1
Lipofectamine RNAiMax (ThermoFisher, Cat. 13778150) based transfections were conducted as per the manufacturer's protocol. Cells were sequentially transfected with a lipoplex containing Spy Cas9 mRNA (100 ng), Lipofectamine RNAiMax (0.4 μL/well) and OptiMem followed by a separate lipoplex containing crRNA (25 nM) and tracer RNA (25 nM) or sgRNA (25 nM), Lipofectamine RNAiMax (0.4 μL/well) and OptiMem.
as §4, §5, §6, §7
(§9) The editing percentage (e.g., the “editing efficiency” or “percent editing” or “indel frequency”) is defined as the total number of sequence reads with insertions/deletions (“indels”) or substitutions over the total number of sequence reads, including wild type.
(§10) Guides in dgRNA format targeting human TTR and the cynomologus matched sequences were delivered to HEK293 Cas9, HUH7 and HepG2 cell lines, as well as primary human hepatocytes and primary cynomolgus monkey hepatocytes as described in Example 1. Percent editing was determined for crRNAs comprising each guide sequence across each cell type and the guide sequences were then rank ordered based on highest % edit. The screening data for the guide sequences in Table 1 in all five cell lines are listed below (Table 4 through 11).

TTR [4] = assay: TTR editing in HUH7 cells transfected with Spy Cas9 mRNA and dgRNAs (Table 5); assay type: cell-based, human; details: HUH7 cells co-transfected with Spy Cas9 mRNA (SEQ ID NO:2) and dgRNAs
Method: HUH7 cell line. The human hepatocellular carcinoma cell line HUH7 (Japanese Collection of Research Bioresources Cell Bank, Cat. JCRB0403) was cultured in DMEM media supplemented with 10% fetal bovine serum. Cells were plated on at a density of 15,000 cells/well in a 96-well plate 20 hours prior to transfection. Cells were transfected with Lipofectamine MessengerMAX (ThermoFisher, Cat. LMRNA003) per the manufacturer's protocol. Cells were sequentially transfected with a lipoplex containing Spy Cas9 mRNA (100 ng), MessengerMAX (0.3 μL/well) and OptiMem followed by a separate lipoplex containing individual crRNA (25 nM), tracer RNA (25 nM), MessengerMAX (0.3 μL/well) and OptiMem.
as §4, §5, §6, §7, §9, §10

TTR [5] = assay: TTR editing in HepG2 cells transfected with Spy Cas9 mRNA and dgRNAs (Table 6); assay type: cell-based, human; details: HepG2 cells co-transfected with Spy Cas9 mRNA (SEQ ID NO:2) and dgRNAs
Method: HepG2 cell line. The human hepatocellular carcinoma cell line HepG2 (American Type Culture Collection, Cat. HB-8065) was cultured in DMEM media supplemented with 10% fetal bovine serum. Cells were counted and plated on Bio-coat collagen I coated 96-well plates (ThermoFisher, Cat. 877272) at a density of 10,000 cells/well in a 96-well plate 24 hours prior to transfection. Cells were transfected with Lipofectamine 2000 (ThermoFisher, Cat. 11668019) per the manufacturer's protocol. Cells were sequentially transfected with lipoplex containing Spy Cas9 mRNA (100 ng), Lipofectamine 2000 (0.2 μL/well) and OptiMem followed by a separate lipoplex containing individual crRNA (25 nM), tracer RNA (25 nM), Lipofectamine 2000 (0.2 μL/well) and OptiMem.
as §4, §5, §6, §7, §9, §10

TTR [6] = assay: TTR editing in HEK293_Cas9 cells transfected with dgRNAs (Table 4); assay type: cell-based, human; details: HEK293_Cas9 cells (constitutively express Spy Cas9) transfected with dgRNAs
Method: HEK293 Cas9 cell line. The human embryonic kidney adenocarcinoma cell line HEK293 constitutively expressing Spy Cas9 (“HEK293_Cas9”) was cultured in DMEM media supplemented with 10% fetal bovine serum and 500 μg/ml G418. Cells were plated at a density of 10,000 cells/well in a 96-well plate 24 hours prior to transfection. Cells were transfected with Lipofectamine RNAiMAX (ThermoFisher, Cat. 13778150) per the manufacturer's protocol. Cells were transfected with a lipoplex containing individual crRNA (25 nM), trRNA (25 nM), Lipofectamine RNAiMAX (0.3 μL/well) and OptiMem.
as §4, §5, §6, §7, §9, §10

TTR [7] = assay: TTR editing in primary human hepatocytes transfected with Spy Cas9 protein (RNP) loaded with dgRNAs (Table 8); assay type: cell-based; details: dgRNA transfected with Spy Cas9 protein (RNP)
Method: as §1, §2
For RNP lipoplex transfections, cells were transfected with Lipofectamine RNAiMAX (ThermoFisher, Cat. 13778150) per the manufacturer's protocol. Cells were transfected with an RNP containing Spy Cas9 (10 nM), individual guide (10 nM), tracer RNA (10 nM), Lipofectamine RNAiMAX (1.0 μL/well) and OptiMem. RNP formation was performed as described above.
as §4, §5, §6, §7, §9
Guides in dgRNA format targeting human TTR and the cynomologus matched sequences were delivered to HEK293 Cas9, HUH7 and HepG2 cell lines, as well as primary human hepatocytes and primary cynomolgus monkey hepatocytes as described in Example 1. […]

Row | Sequence | Avg % Deletion (TTR [1]) | Avg % Edit (TTR [1]) | Avg % Deletion (TTR [2]) | Avg % Edit (TTR [2]) | Avg % Insert (TTR [2]) | Avg % Deletion (TTR [3]) | Avg % Edit (TTR [3]) | Avg % Insert (TTR [3]) | Avg % Deletion (TTR [4]) | Avg % Edit (TTR [4]) | Avg % Insert (TTR [4]) | Avg % Deletion (TTR [5]) | Avg % Edit (TTR [5]) | Avg % Insert (TTR [5]) | Avg % Deletion (TTR [6]) | Avg % Edit (TTR [6]) | Avg % Insert (TTR [6]) | Avg % Deletion (TTR [7]) | Avg % Edit (TTR [7]) | Avg % Insert (TTR [7]) | further results
1 | CAUUGACAGCAGGACUGCCU (tested as dual guide RNA, chemistry not given here) [CR005365] | 64.85% | 64.94% |  |  |  |  |  |  |  |  |  |  |  |  |  |  |  |  |  |  | Avg % Insert (TTR [1]): 0.10%
2 | ACUUGUCUUCUCUAUACCCA (tested as dual guide RNA, chemistry not given here) [CR005370] | 62.93% | 63.52% |  |  |  |  |  |  |  |  |  |  |  |  |  |  |  |  |  |  | Avg % Insert (TTR [1]): 0.59%
3 | AAAGGCUGCUGAUGAGACCU (tested as dual guide RNA, chemistry not given here) [CR005364] | 27.11% | 27.70% |  |  |  |  |  |  |  |  |  |  |  |  |  |  |  |  |  |  | Avg % Insert (TTR [1]): 0.58%
4 | AAUGGUGUAGCGGCGGGGGC (tested as dual guide RNA, chemistry not given here) [CR003375] |  |  | 0.07% | 1.33% | 1.27% | 0.03% | 1.27% | 1.23% | 2.25% | 2.38% | 0.26% | 0.10% | 2.06% | 1.96% | 10.85% | 11.63% | 0.78% | 0.11% | 5.04% | 4.93% | 
5 | ACCUGGGAGCCAUUUGCCUC (tested as dual guide RNA, chemistry not given here) [CR003354] |  |  | 0.03% | 2.50% | 2.43% | 0.13% | 2.97% | 2.87% | 11.46% | 12.27% | 1.25% | 0.53% | 5.36% | 4.84% | 15.90% | 18.46% | 2.56% | 0.23% | 10.31% | 10.07% | 
6 | GUAUUCACAGCCAACGACUC (tested as dual guide RNA, chemistry not given here) [CR003373] |  |  | 0.07% | 0.87% | 0.83% | 0.37% | 1.40% | 1.00% | 25.12% | 27.29% | 3.31% | 1.77% | 17.69% | 15.92% | 12.25% | 13.55% | 1.31% | 0.19% | 3.64% | 3.44% | 
7 | GGCGGCAAUGGUGUAGCGGC (tested as dual guide RNA, chemistry not given here) [CR003378] |  |  | 0.73% | 4.60% | 3.87% | 1.37% | 9.80% | 8.50% | 32.27% | 40.73% | 9.73% | 1.34% | 8.16% | 6.82% | 16.48% | 20.97% | 4.49% | 0.42% | 8.66% | 8.24% | 
8 | GGGGCUCAGCAGGGCGGCAA (tested as dual guide RNA, chemistry not given here) [CR003381] |  |  | 0.50% | 6.20% | 5.83% | 0.73% | 4.07% | 3.33% | 99.70% | 99.70% | 1.92% | 0.63% | 6.81% | 6.18% | 18.23% | 22.04% | 3.82% | 0.27% | 7.15% | 6.88% | 

Source: patent publication US11795460B2, “Compositions and methods for TTR gene editing and treating ATTR amyloidosis” (Intellia Therapeutics, Inc., priority 2017, dated 2023)
